Read-outs that look alike come from different tables or passages of the source.
Legend:
[1] = tested on: Male Sprague Dawley rats; conditions: rat, 30 min pretreatment
[2] = tested on: patients with Alzheimer's Disease; conditions: for Agitation score / Anxiety score / Apathy score / Delusions score / Depression score / Disinhibition score / Elation score / Hallucinations score / Irritability score / Wandering score / Total NPI score: All Patients, negative = improvement; for NPI total score, country adjusted difference vs placebo: all patients
Experimental: A retrospective meta-analysis on the combined data was then conducted and effects on individual symptoms assessed.
Country adjusted differences were calculated as the difference between the adjusted least square means; allowing estimates from each country to be combined in a manner whereby the most precise estimate is given more weight.
Following this analysis, a further retrospective analysis was conducted on the subgroup of patients who presented with severe behavioural disturbance at the start of the study (defined as a baseline NPI score>20). Country adjusted differences were calculated as the difference between the adjusted least square means; allowing estimates from each country to be combined in a manner whereby the most precise estimate is given more weight.

[3] = tested on: Male Sprague Dawley rats; test: Catalepsy in the rat; conditions: 90 min after dosing, doses up to 0.3 mg/kg po
[4] = tested on: Male Sprague Dawley rats; conditions: rat, in vivo, 2.8 mg/kg, 90 min
[5] = Patients with baseline NPI >20, 25 μg bid
[6] = Patients with baseline NPI >20, 50 μg uid

CO/N=C(\C#N)[C@H]1CN2CCC1CC2 [Compound (I), [R-(Z)]-α-(methoxyimino)-α-(1-azabicyclo[2.2.2]oct-3-yl)acetonitrile]
dose at which reversal of amphetamine-induced hyperactivity reached significance (P<0.01) ([1]; 0.01-0.3 mg/kg po): 0.3 mg/kg | ED50 for reversal of amphetamine-induced hyperactivity ([1]; po, 95% CI=0.14-0.75): 0.25 mg/kg | Agitation score ([2]; 25 μg bid): −0.5 | Anxiety score ([2]; 25 μg bid): −0.9 | Apathy score ([2]; 25 μg bid): −1.1 | Delusions score ([2]; 25 μg bid): −0.7 | Depression score ([2]; 25 μg bid): −0.3 | Disinhibition score ([2]; 25 μg bid): −0.7 | Elation score ([2]; 25 μg bid): −1.1 | Hallucinations score ([2]; 25 μg bid): −1.5 | Irritability score ([2]; 25 μg bid): −0.4 | Wandering score ([2]; 25 μg bid): −1.2 | Total NPI score ([2]; 25 μg bid, p 0.064 vs placebo): +0.7 | Agitation score ([2]; 50 μg uid): −0.6 | Anxiety score ([2]; 50 μg uid): −1.5 | Apathy score ([2]; 50 μg uid): −1.5 | Delusions score ([2]; 50 μg uid): −0.6 | Depression score ([2]; 50 μg uid): −0.6 | Disinhibition score ([2]; 50 μg uid): −0.7 | Elation score ([2]; 50 μg uid): −1.9 | Hallucinations score ([2]; 50 μg uid): −0.7 | Irritability score ([2]; 50 μg uid): −0.9 | Wandering score ([2]; 50 μg uid): −1.0 | Total NPI score ([2]; 50 μg uid, p 0.026 vs placebo): +0.3 | Agitation endpoint score: change from baseline [2, 5]: 0 | Anxiety endpoint score: change from baseline [2, 5]: −1.9 | Apathy endpoint score: change from baseline [2, 5]: −1.4 | Delusions endpoint score: change from baseline [2, 5]: −0.8 | Depression endpoint score: change from baseline [2, 5]: 0 | Disinhibition endpoint score: change from baseline [2, 5]: −0.8 | Elation endpoint score: change from baseline [2, 5]: −1.7 | Hallucinations endpoint score: change from baseline [2, 5]: −2.1 | Irritability endpoint score: change from baseline [2, 5]: −0.7 | Wandering endpoint score: change from baseline [2, 5]: −1.7 | Total NPI endpoint score: change from baseline ([2]; Patients with baseline NPI >20, 25 μg bid, p 0.043 vs placebo): −4.0 | Agitation endpoint score: change from baseline [2, 6]: −0.6 | Anxiety endpoint score: change from baseline [2, 6]: −1.8 | Apathy endpoint score: change from baseline [2, 6]: −1.6 | Delusions endpoint score: change from baseline [2, 6]: −1.4 | Depression endpoint score: change from baseline [2, 6]: −1.1 | Disinhibition endpoint score: change from baseline [2, 6]: −1.1 | Elation endpoint score: change from baseline [2, 6]: −2.5 | Hallucinations endpoint score: change from baseline [2, 6]: −1.4 | Irritability endpoint score: change from baseline [2, 6]: −1.2 | Wandering endpoint score: change from baseline [2, 6]: −1.3 | Total NPI endpoint score: change from baseline ([2]; Patients with baseline NPI >20, 50 μg uid, p 0.019 vs placebo): −6.1 | NPI total score, country adjusted difference vs placebo ([2]; 50 μg uid, p=0.026, 95% CI −4.1, −0.3): −2.1 | NPI total score, country adjusted difference vs placebo ([2]; 25 kg bid (so in the source), p=0.064, 95% CI −3.8, 0.1): −1.8 | total NPI score, country adjusted difference vs placebo ([2]; patients with baseline NPI>20, 25 μg bid, p=0.043, 95% CI −14.1, −0.2): −7.18 | total NPI score, country adjusted difference vs placebo ([2]; patients with baseline NPI>20, 50 μg uid, p=0.019, 95% CI −14.4, −1.3): −7.86 | catalepsy [3]: did not produce catalepsy

O=C(CCCN1CCC(O)(c2ccc(Cl)cc2)CC1)c1ccc(F)cc1 [haloperidol, Haloperidol]
rats in which catalepsy was produced [4]: 6 of 6
